Results taken from ChEMBL document CHEMBL5143690, “Identification of nitrofuranylchalcone tethered benzoxazole-2-amines as potent inhibitors of drug resistant Mycobacterium tuberculosis demonstrating bactericidal efficacy” (Bioorg Med Chem, 2022).
In brackets after ≈: the same amount, converted by molar mass. Activity calls are given as the source filed them. No cut-off for these calls is given here.

Columns and labels:
[1] = system: Mycobacterium tuberculosis; assay: Antimycobacterial activity against Mycobacterium tuberculosis H37Rv ATCC 27294 assessed as inhibition of bacterial growth measured after 7 days by resazurin microtitre assay; format: functional; conditions: H37Rv ATCC 27294, 168 h, time 7 day
Pseudomonas aeruginosa = assay: Antibacterial activity against Pseudomonas aeruginosa ATCC 27853 assessed as reduction in bacterial growth incubated for 16 to 18 hrs by microtiter plate assay; format: functional; conditions: time 16-18 hrs
[2] = system: Mycolicibacterium fortuitum; assay: Antimycobacterial activity against Mycobacterium fortuitum ATCC 6841 assessed as inhibition of bacterial growth after 48 hrs by resazurin microtitre assay; format: functional
[3] = system: Mycobacteroides abscessus; assay: Antimycobacterial activity against Mycobacterium abscessus ATCC 19977 assessed as inhibition of bacterial growth after 48 hrs by resazurin microtitre assay; format: functional
[4] = Selectivity index, ratio of CC50 for African green monkey Vero cells to MIC for Mycobacterium tuberculosis H37Rv ATCC 27294; format: toxicity; conditions: read-out: Selectivity Index
[5] = Cytotoxicity against African green monkey Vero cells assessed as reduction in cell viability measured after 72 hrs by MTT assay; format: toxicity, cell-based; conditions: chlorocebus sabaeus
Mycobacteroides chelonae = assay: Antimycobacterial activity against Mycobacterium chelonae ATCC 6841 assessed as inhibition of bacterial growth after 48 hrs by resazurin microtitre assay; format: functional
Acinetobacter baumannii = assay: Antibacterial activity against Acinetobacter baumannii BAA 1605 assessed as reduction in bacterial growth incubated for 16 to 18 hrs by microtiter plate assay; format: functional; conditions: time 16-18 hrs
Staphylococcus aureus = assay: Antibacterial activity against Staphylococcus aureus ATCC 29213 assessed as reduction in bacterial growth incubated for 16 to 18 hrs by microtiter plate assay; format: functional; conditions: time 16-18 hrs
Escherichia coli = assay: Antibacterial activity against Escherichia coli ATCC 25922 assessed as reduction in bacterial growth incubated for 16 to 18 hrs by microtiter plate assay; format: functional; conditions: time 16-18 hrs
Klebsiella pneumoniae = assay: Antibacterial activity against Klebsiella pneumoniae BAA 1705 assessed as reduction in bacterial growth incubated for 16 to 18 hrs by microtiter plate assay; format: functional; conditions: time 16-18 hrs
[6] = system: Mycobacterium tuberculosis; assay: Antimycobacterial activity against Mycobacterium tuberculosis H37Rv assessed as reduction in log10CFU at 10 X MIC measured after 5 to 6 days by time kill assay; format: functional, organism-based; conditions: time 5-6 day
[7] = system: Mycobacterium tuberculosis; assay: Antimycobacterial activity against Mycobacterium tuberculosis H37Rv assessed as reduction in log10CFU at 1XMIC measured after 5 to 6 days by time kill assay; format: functional, organism-based; conditions: time 5-6 day
[8] = Aqueous solubility in phosphate buffer at pH 7.4 incubated for 4 hrs by HPLC analysis; format: physicochemical
[9] = Metabolic stability in human liver microsomes assessed as intrinsic clearance at 1 uM preincubated for 5 mins in presence of NADPH incubated up to 60 mins by LC-MS/MS analysis; format: ADME, Microsome; conditions: time 65 min, read-out: CLH
[10] = system: Mycobacterium tuberculosis; assay: Antimycobacterial activity against Mycobacterium tuberculosis H37Rv at 1 X MIC measured after 5 to 7 days by time kill assay; format: functional; conditions: time 5-7 day
[11] = system: Mycobacterium tuberculosis; assay: Antimycobacterial activity against Mycobacterium tuberculosis H37Rv assessed as minimum bactericidal concentration by time kill assay; format: functional
[12] = system: Mycobacterium tuberculosis; assay: Antimycobacterial activity against Mycobacterium tuberculosis H37Rv at 10 X MIC measured after 5 to 7 days by time kill assay; format: functional; conditions: time 5-7 day
[13] = Metabolic stability in human liver microsomes assessed as elimination rate constant at 1 uM preincubated for 5 mins in presence of NADPH incubated up to 60 mins by LC-MS/MS analysis; format: ADME, Microsome; conditions: time 65 min
[14] = Metabolic stability in human liver microsomes assessed as half life at 1 uM preincubated for 5 mins in presence of NADPH incubated up to 60 mins by LC-MS/MS analysis; format: ADME, Microsome; conditions: time 65 min

Row | Structure (SMILES) | MIC [1] [µg/mL] | MIC (Pseudomonas aeruginosa) [µg/mL] | MIC [2] [µg/mL] | MIC [3] [µg/mL] | selectivity ratio [4] | CC50 at 72 h [5] [µg/mL] | MIC (Mycobacteroides chelonae) [µg/mL] | MIC (Acinetobacter baumannii) [µg/mL] | MIC (Staphylococcus aureus) [µg/mL] | MIC (Escherichia coli) [µg/mL] | MIC (Klebsiella pneumoniae) [µg/mL] | Activity [6] | Activity [7] | solubility at 4 h [8] [µg/mL] | microsomal CLint at 1 µM [9] [µL/min/mg] | Activity [10] [%] | MBC [11] [µg/mL] | Activity [12] [%] | k el at 1 h, 1 µM [13] [s⁻¹] | half-life at 1 µM [14] [min]
1 | Cc1ccc2oc(Nc3ccc(C(=O)/C=C/c4ccc([N+](=O)[O-])o4)cc3)nc2c1 | 0.06 (≈ 0.154 µM) | > 64 | > 64 | > 64 | 80 | 5 (≈ 12.8 µM) | > 64 | > 64 | 4 (≈ 10.3 µM) | > 64 | > 64 |  |  |  |  |  |  |  |  | 
2 | CO[C@H]1/C=C/O[C@@]2(C)Oc3c(C)c(O)c4c(O)c(c(/C=N/N5CCN(C)CC5)c(O)c4c3C2=O)NC(=O)/C(C)=C\C=C\[C@H](C)[C@H](O)[C@@H](C)[C@@H](O)[C@@H](C)[C@H](OC(C)=O)[C@@H]1C [RIFAMPIN] | 0.03 (≈ 0.0365 µM) |  |  |  |  |  |  |  |  |  |  | Active | Active |  |  |  |  |  |  | 
3 | O=C(/C=C/c1ccc([N+](=O)[O-])o1)c1ccc(Nc2nc3ccccc3o2)cc1 | 0.12 (≈ 0.32 µM) | > 64 | > 64 | > 64 | 40 | 5 (≈ 13.3 µM) | > 64 | > 64 | 4 (≈ 10.7 µM) | > 64 | > 64 | Active | Active |  |  |  |  |  |  | 
4 | O=C(/C=C/c1ccc([N+](=O)[O-])o1)c1cccc(Nc2nc3ccccc3o2)c1 | 0.06 (≈ 0.16 µM) | > 64 | > 64 | > 64 | 80 | 5 (≈ 13.3 µM) | > 64 | > 64 | 16 (≈ 42.6 µM) | > 64 | > 64 |  |  |  |  |  |  |  |  | 
5 | O=C(/C=C/c1ccc([N+](=O)[O-])o1)c1ccc(Nc2nc3cc([N+](=O)[O-])ccc3o2)cc1 | 0.03 (≈ 0.0714 µM) | > 64 | > 64 | > 64 | > 800 | 5 (≈ 11.9 µM) | > 64 | > 64 | 4 (≈ 9.52 µM) | > 64 | > 64 | Active | Active |  |  |  |  |  |  | 
6 | COc1ccc(C(=O)/C=C/c2ccc([N+](=O)[O-])o2)cc1Nc1nc2ccccc2o1 | 0.25 (≈ 0.617 µM) | > 64 | > 64 | > 64 | < 10 | 5 (≈ 12.3 µM) | > 64 | > 64 | 8 (≈ 19.7 µM) | > 64 | > 64 |  |  |  |  |  |  |  |  | 
7 | CC(C)(C)c1ccc2oc(Nc3ccc(C(=O)/C=C/c4ccc([N+](=O)[O-])o4)cc3)nc2c1 | 0.5 (≈ 1.16 µM) | > 64 | > 64 | > 64 | < 10 | 5 (≈ 11.6 µM) | > 64 | > 64 | 8 (≈ 18.5 µM) | > 64 | > 64 |  |  |  |  |  |  |  |  | 
8 | CN(C)c1ccc(/C=C/C(=O)c2ccc(Nc3nc4ccccc4o3)cc2)cc1 | 64 (≈ 167 µM) | > 64 | > 64 | > 64 |  |  | > 64 | > 64 | > 64 | > 64 | > 64 |  |  |  |  |  |  |  |  | 
9 | COc1cc(OC)c(OC)cc1/C=C/C(=O)c1ccc(Nc2nc3ccccc3o2)cc1 | 16 (≈ 37.2 µM) | > 64 | > 64 | > 64 |  |  | > 64 | > 64 | > 64 | > 64 | > 64 |  |  |  |  |  |  |  |  | 
10 | COc1cc(/C=C/C(=O)c2ccc(Nc3nc4cc([N+](=O)[O-])ccc4o3)cc2)cc(OC)c1OC | 16 (≈ 33.7 µM) | > 64 | > 64 | > 64 |  |  | > 64 | > 64 | > 64 | > 64 | > 64 |  |  |  |  |  |  |  |  | 
11 | COc1ccc(/C=C/C(=O)c2ccc(Nc3nc4ccccc4o3)cc2)cc1 | 32 (≈ 86.4 µM) | > 64 | > 64 | > 64 |  |  | > 64 | > 64 | > 64 | > 64 | > 64 |  |  |  |  |  |  |  |  | 
12 | O=C(/C=C/c1ccc([N+](=O)[O-])o1)c1ccc(Nc2nc3cc(Cl)ccc3o2)cc1 | 0.03 (≈ 0.0732 µM) | > 64 | > 64 | > 64 | 160 | 5 (≈ 12.2 µM) | > 64 | > 64 | 4 (≈ 9.76 µM) | > 64 | > 64 |  |  | 2.5 (≈ 6.1 µM) | 38.5 | 100 | 0.03 (≈ 0.0732 µM) | 100 | 0.000333 | 34.6
13 | COc1ccc(/C=C/C(=O)c2ccc(Nc3nc4ccccc4o3)cc2)c(OC)c1OC | 16 (≈ 37.2 µM) | > 64 | > 64 | > 64 |  |  | > 64 | > 64 | > 64 | > 64 | > 64 |  |  |  |  |  |  |  |  | 
14 | O=C(/C=C/c1ccc([N+](=O)[O-])cc1)c1ccc(Nc2nc3ccccc3o2)cc1 | 32 (≈ 83 µM) | > 64 | > 64 | > 64 |  |  | > 64 | > 64 | > 64 | > 64 | > 64 |  |  |  |  |  |  |  |  | 
15 | O=C(/C=C/c1ccc(Cl)cc1)c1ccc(Nc2nc3ccccc3o2)cc1 | 64 (≈ 171 µM) | > 64 | > 64 | > 64 |  |  | > 64 | > 64 | > 64 | > 64 | > 64 |  |  |  |  |  |  |  |  | 
16 | O=C(/C=C/c1ccc(Br)cc1)c1ccc(Nc2nc3ccccc3o2)cc1 | 64 (≈ 153 µM) | > 64 | > 64 | > 64 |  |  | > 64 | > 64 | > 64 | > 64 | > 64 |  |  |  |  |  |  |  |  | 
